# Biological target: T1, HIV protease (Human immunodeficiency virus type 1 group M subtype B, UniProt P12497)
# T1 construct: HIV protease expressed in Escherichia coli; made in house; host or cells: Escherichia coli
# Test: Assay for Inhibition of Recombinant HIV Protease (APRIN 2.1)
# Format: biochemical
# Details: Conc. 1 ng/ml; read-out: APRIN 2.1 Act. (% Inhib.)
# Experimental: Assay for Inhibition of Recombinant HIV Protease (APRIN 2.1)
# Inhibition studies were performed on the reaction of the HIV protease expressed in Escherichia coli with a tritiated peptide substrate, [^3 H]-acetyl-Val-Ser-Gln-Asn-(beta-napthyl-Ala)-Pro-Ile-Val-Gln-Gly-Arg -Arg-NH2 (MW 1800). The two arginine residues at the carboxyl terminus give this peptide an overall positive charge at acidic pH and enable it to bind to the H^+ form of DOWEX AG-50W-X8 resin and similar resins.
# Aliquots of 25 μl containing 6.0-8.0 nM HIV protease in assay buffer (100 mM sodium acetate, pH 5.5 and 0.1% BSA) are placed in assay tubes. The reaction is initiated by addition of 25 μl aliquots of 4.2 μM tritiated peptide substrate in 100 mM sodium acetate, pH 5.5. After incubation for 60 min at 37° C., the reaction is stopped with 100 μl of 5% H3 PO4, then analysed by application of column chromatography.
structure (smiles),measurement,value
"CC(C)(C)OC(=O)N[C@@H](Cc1ccccc1)[C@@H](O)C[C@@H](Cc1ccc(OCC(=O)O)cc1)C(=O)N[C@H]1c2ccccc2C[C@H]1O [L-694,746]",inhibition at 0.001 µg/mL,88%

# — patent publication US5192668A, “Synthesis of protease inhibitor” (Merck & Co., Inc., priority 1992, dated 1993)
